One data set deals with T1, hTLR9 (Homo sapiens, UniProt Q9NR96).
T1 sequence (Q9NR96 26-1032): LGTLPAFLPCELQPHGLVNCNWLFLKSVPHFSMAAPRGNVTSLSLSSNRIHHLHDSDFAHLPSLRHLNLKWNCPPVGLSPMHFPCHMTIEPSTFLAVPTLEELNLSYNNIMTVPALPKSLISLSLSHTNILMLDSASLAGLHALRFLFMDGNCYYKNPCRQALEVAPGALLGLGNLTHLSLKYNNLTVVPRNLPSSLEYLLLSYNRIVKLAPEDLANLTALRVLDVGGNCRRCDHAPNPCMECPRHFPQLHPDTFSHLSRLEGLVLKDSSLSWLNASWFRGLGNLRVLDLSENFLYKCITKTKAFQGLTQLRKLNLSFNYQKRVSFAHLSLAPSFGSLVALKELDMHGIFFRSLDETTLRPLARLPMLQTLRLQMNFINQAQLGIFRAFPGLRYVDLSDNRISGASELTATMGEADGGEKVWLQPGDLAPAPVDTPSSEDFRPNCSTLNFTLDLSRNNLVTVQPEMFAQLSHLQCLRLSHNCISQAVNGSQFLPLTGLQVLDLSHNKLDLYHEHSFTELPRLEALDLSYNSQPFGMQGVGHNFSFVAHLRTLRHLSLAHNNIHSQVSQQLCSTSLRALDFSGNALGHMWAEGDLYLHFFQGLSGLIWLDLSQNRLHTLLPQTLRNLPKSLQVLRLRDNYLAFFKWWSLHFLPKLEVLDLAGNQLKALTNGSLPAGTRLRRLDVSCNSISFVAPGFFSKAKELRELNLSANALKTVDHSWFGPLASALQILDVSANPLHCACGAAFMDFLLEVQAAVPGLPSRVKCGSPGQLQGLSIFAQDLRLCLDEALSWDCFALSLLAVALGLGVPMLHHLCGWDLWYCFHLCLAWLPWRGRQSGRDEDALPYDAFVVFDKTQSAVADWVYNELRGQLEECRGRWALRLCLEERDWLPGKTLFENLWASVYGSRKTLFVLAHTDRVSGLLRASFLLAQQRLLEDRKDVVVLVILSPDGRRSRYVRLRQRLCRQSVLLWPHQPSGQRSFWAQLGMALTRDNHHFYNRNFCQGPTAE
The arrangement: host or cells: HEK. The conditions noted are these: data disclosed in US20150105370; read-out: HEK/hTLR9 IC50; cited from earlier work.

The target of a further data set is T2, hTLR7 (Homo sapiens, UniProt Q9NYK1).
T2 sequence (Q9NYK1 27-1049): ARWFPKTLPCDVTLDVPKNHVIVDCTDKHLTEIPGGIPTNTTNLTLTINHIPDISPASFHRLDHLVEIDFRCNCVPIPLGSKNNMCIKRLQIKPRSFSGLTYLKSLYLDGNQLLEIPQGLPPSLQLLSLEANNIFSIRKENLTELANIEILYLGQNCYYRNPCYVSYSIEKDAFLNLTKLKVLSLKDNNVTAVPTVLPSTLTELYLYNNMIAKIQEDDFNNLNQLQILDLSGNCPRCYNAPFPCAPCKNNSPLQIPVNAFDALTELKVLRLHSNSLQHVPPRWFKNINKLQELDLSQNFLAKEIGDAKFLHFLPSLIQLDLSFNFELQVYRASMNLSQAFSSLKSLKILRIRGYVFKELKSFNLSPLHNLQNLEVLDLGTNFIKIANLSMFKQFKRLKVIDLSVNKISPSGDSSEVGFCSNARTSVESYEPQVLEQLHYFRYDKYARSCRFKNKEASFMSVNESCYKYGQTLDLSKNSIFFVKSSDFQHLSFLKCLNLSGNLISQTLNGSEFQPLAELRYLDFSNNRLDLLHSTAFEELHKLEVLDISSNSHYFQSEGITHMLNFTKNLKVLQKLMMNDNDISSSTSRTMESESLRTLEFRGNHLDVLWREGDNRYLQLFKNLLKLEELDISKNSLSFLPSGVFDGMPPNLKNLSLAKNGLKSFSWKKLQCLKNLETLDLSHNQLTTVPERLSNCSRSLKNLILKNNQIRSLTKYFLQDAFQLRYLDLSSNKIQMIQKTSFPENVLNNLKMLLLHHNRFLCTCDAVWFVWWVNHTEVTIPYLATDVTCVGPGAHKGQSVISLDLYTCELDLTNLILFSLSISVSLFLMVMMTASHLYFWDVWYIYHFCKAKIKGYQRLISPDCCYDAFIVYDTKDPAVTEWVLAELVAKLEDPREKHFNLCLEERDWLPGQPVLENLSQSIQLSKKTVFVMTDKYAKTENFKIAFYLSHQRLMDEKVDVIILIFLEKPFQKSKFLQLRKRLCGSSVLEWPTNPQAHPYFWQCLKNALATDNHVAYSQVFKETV
Details: host or cells: HEK. The conditions noted are these: data disclosed in US20150105370; read-out: HEK/hTLR7 IC50; cited from earlier work.

Data set [1] can be described thus: Human microsome stability assay. The class given is in vitro ADME. As to conditions: 1 µM test compound, 0.5 mg/mL liver microsomal protein, 37 °C. How it is done:
The human microsomal stability assay is used for early assessment of metabolic stability of a test compound in human liver microsomes.
Human liver microsomes (Cat.NO.: 452117, Corning, USA;Cat.NO.:H2610, Xenotech, USA) were preincubated with test compound for 10 minutes at 37 °C in 100 mM potassium phosphate buffer, pH 7.4. The reactions were initiated by adding NADPH regenerating system. The final incubation mixtures contained 1 µM test compound, 0.5 mg/mL liver microsomal protein, 1 mM MgClz, 1 mM NADP, 1 unit/mL isocitric dehydrogenase and 6 mM isocitric acid in 100 mM potassium phosphate buffer, pH 7.4. After incubation times of 0, 3, 6, 9, 15 and 30 minutes at 37 °C, 300 µL of cold acetonitrile (including internal standard) was added to 100 µL incubation mixture to terminate the reaction. Following precipitation and centrifugation, the amount of compound remaining in the samples were determined by LC-MS/MS. Controls of no NADPH regenerating system at zero and 30 minutes were also prepared and analyzed. […] Table 6. Human liver microsome stability of the compounds of present invention
On the technique in general: Liver microsomes are vesicles of endoplasmic reticulum, rich in cytochrome P450 enzymes.

The target in the next data set is T3, CYP2D6 (Homo sapiens, UniProt P10635).
T3 construct: tissue BD-Gentest 452117; host or cells: human liver microsomes
Description: CYP inhibition assay in human liver microsome. As to conditions: human liver microsomes, probe dextromethorphan, 10µM test compound, dextromethorphan substrate, <0: not or weak inhibitor, read-out: CYP 2D6 inhibition %@10µM. The class given is in vitro ADME. Here is the method: This is a high throughput screening assay used for assessment of reversible inhibition of CYP2D6 activity of test compounds in human liver microsome (HLM) in early discovery stage. Table 4. Chemicals and materials used in the CYP inhibition assay
10 mM DMSO stock solutions of test compounds were diluted in DMSO to generate 2 mM intermediate stock solution. 250 nL of intermediate stock solution were transferred in duplicate into 3 separate 384 well microtitre plates (assay-ready plates). A mixture of HLM and each substrate was made up. 45 µL of HLM substrate mix was then transferred to each well of an assay ready plate and mixed. The negative (solvent) and positive control (standard inhibitor for CYP 2D6) were included in each assay ready plate. The assay ready plate was warmed to 37 °C in an incubator over 10 minutes. 5 µL pre-warmed NADPH regenerating system was added to each incubation well to start the reaction. Final incubation volume was 50 µL. The assay plate then was placed back in the 37 °C incubator. After 10-minute incubation, incubates were quenched by addition of 50 µL 100% acetonitrile containing internal standards (20 ng/mL D3-Dextrorphan). The supernatants were collected for RapidFire/MS/MS analysis.
RapidFire online solid phase extraction/sample injection system (Agilent) coupled with API4000 triple quadrupole mass spectrometer (AB Sciex) were used for sample analysis. The mobile phase composed of acetonitrile and water supplemented with 0.1% formic acid. A C4 solid phase extraction cartridge is used for sample separation. MS detection is achieved in positive ion MRM mode.
Peak areas for substrate, metabolite and internal standard are determined using the RapidFire integrator software (version 3.6.12009.12296). Peak area ratios (PAR) of metabolite and internal standard (stable-labelled metabolite) are then calculated. The measurement window for each experiment is then defined: • PAR (0% activity)= average PAR for all incubations containing concentrated inhibitor; • Par (100% activity)= average PAR for all incubations containing no inhibitor (DMSO controls); • % Activity (test inhibitor) • =[PAR(test inhibitor)-PAR(0% activity)]/[PAR(100% activity)-PAR(0% activity)]; • % Inhibition (test inhibitor)=100-% Activity (test inhibitor).

Molecules are shown by their SMILES.

T3 sequence (P10635 whole entry): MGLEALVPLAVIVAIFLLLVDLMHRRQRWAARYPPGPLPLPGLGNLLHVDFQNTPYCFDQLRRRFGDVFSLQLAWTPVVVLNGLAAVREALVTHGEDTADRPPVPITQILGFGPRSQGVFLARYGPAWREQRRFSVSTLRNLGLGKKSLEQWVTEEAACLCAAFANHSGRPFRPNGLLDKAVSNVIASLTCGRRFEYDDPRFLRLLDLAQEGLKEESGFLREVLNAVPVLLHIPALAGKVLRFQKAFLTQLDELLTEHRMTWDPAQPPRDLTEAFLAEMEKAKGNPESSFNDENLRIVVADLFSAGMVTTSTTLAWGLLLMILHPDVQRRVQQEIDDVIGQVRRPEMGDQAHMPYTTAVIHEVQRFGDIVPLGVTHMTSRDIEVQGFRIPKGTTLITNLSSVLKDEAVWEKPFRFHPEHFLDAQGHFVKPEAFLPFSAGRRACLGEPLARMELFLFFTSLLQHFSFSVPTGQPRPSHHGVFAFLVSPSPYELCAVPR

As for `C[C@@H]1CN(c2ccc(C#N)c3ncccc23)C[C@H](CN2CC(NS(=O)(=O)c3ccc(F)cc3)C2)O1` [ER-894155], the results for the IC50 at hTLR9 and on hTLR7 were > 10000 nM and 282 nM, respectively.

As to `Cc1nn(C)cc1S(=O)(=O)NC1CCN(C[C@H]2CN(c3ccc(C#N)c4ncccc34)C[C@@H](C)O2)CC1` [ER-894160], the IC50 on hTLR9 is > 10000 nM; at hTLR7, 199 nM. `C[C@@H]1CN(c2ccc(C#N)c3ncccc23)C[C@H](CN2CC[C@@H](NC(=O)c3ccccc3)C2)O1` [ER-894544]: the IC50 on hTLR9 was > 6200 nM; on hTLR7, 43 nM. For the compound `C[C@@H]1CN(c2ccc(C#N)c3ncnn23)C[C@H](CN2CCN(c3cnc4c(c3)CNCC4)CC2)O1` [Example 27, 5-[(2R,6S)-2-methyl-6-[[4-(5,6,7,8-tetrahydro-1,6-naphthyridin-3-yl)piperazin-1-yl]methyl]morpholin-4-yl]-[1,2,4]triazolo[1,5-a]pyridine-8-carbonitrile], the “Clearance of Human microsome” value in data set [1] amounted to 7.28 mL/min/kg. As for `C[C@@H]1CN(c2ccc(C#N)c3ncccc23)C[C@H](CN2CC3COCC(C2)N3c2cnc3c(c2)CNC3)O1` [Example 37, 5-[(2S,6R)-2-[[9-(6,7-dihydro-5H-pyrrolo[3,4-b]pyridin-3-yl)-3-oxa-7,9-diazabicyclo[3.3.1]nonan-7-yl]methyl]-6-methyl-morpholin-4-yl]quinoline-8-carbonitrile], the “Clearance of Human microsome” value in data set [1] stood at 6.72 mL/min/kg.

In the case of `COc1ccc(N2C[C@H](CN3CCN(c4cc5c(cn4)CCNC5)CC3)O[C@H](C)C2)c2nccnc12` [Example 89, (2R,6S)-4-(8-methoxyquinoxalin-5-yl)-2-methyl-6-[[4-(5,6,7,8-tetrahydro-2,6-naphthyridin-3-yl)piperazin-1-yl]methyl]morpholine], the “Clearance of Human microsome” value in data set [1] was found to be 6.54 mL/min/kg. In the case of `Cc1cnc2c(C#N)ccc(N3C[C@H](CN4CCN(c5cc6c(cn5)CCNC6)CC4)O[C@H](C)C3)c2n1` [Example 90, 2-methyl-8-[(2R,6S)-2-methyl-6-[[4-(5,6,7,8-tetrahydro-2,6-naphthyridin-3-yl)piperazin-1-yl]methyl]morpholin-4-yl]quinoxaline-5-carbonitrile], the inhibition at 10 min, 10 µM on CYP2D6 was 5%. With `C[C@@H]1CN(c2ccc(C(F)(F)F)c3nccnc23)C[C@H](CN2CCN(c3cc4c(cn3)CCNC4)CC2)O1` [Example 91, (2R,6S)-2-methyl-6-[[4-(5,6,7,8-tetrahydro-2,6-naphthyridin-3-yl)piperazin-1-yl]methyl]-4-[8-(trifluoromethyl)quinoxalin-5-yl]morpholine], the inhibition at 10 min, 10 µM at CYP2D6 worked out at 14%. As for `C[C@@H]1CN(c2cc(=O)n(C)c3ncccc23)C[C@H](CN2CCN(c3ccc4c(n3)CN[C@@H]4C)CC2)O1` [Example 100, 1-methyl-4-[(2R,6S)-2-methyl-6-[[4-[(5R)-5-methyl-6,7-dihydro-5H-pyrrolo[3,4-b]pyridin-2-yl]piperazin-1-yl]methyl]morpholin-4-yl]-1,8-naphthyridin-2-one], the “Clearance of Human microsome” value in data set [1] is recorded as 8.54 mL/min/kg.

For the compound `CCn1c(=O)cc(N2C[C@H](CN3CCN(c4ccc5c(n4)CN[C@@H]5C)CC3)O[C@H](C)C2)c2cccnc21` [Example 101, 1-ethyl-4-[(2R,6S)-2-methyl-6-[[4-[(5R)-5-methyl-6,7-dihydro-5H-pyrrolo[3,4-b]pyridin-2-yl]piperazin-1-yl]methyl]morpholin-4-yl]-1,8-naphthyridin-2-one], the “Clearance of Human microsome” value in data set [1] is 6.67 mL/min/kg. Consider `C[C@@H]1CN(c2cc(=O)n(C)c3ncccc23)C[C@H](CN2CCN(c3cc4c(cn3)CCNC4)CC2)O1` [Example 103, 1-methyl-4-[(2R,6S)-2-methyl-6-[[4-(5,6,7,8-tetrahydro-2,6-naphthyridin-3-yl)piperazin-1-yl]methyl]morpholin-4-yl]-1,8-naphthyridin-2-one], for which the “Clearance of Human microsome” value in data set [1] turned out to be 6.15 mL/min/kg.

For orientation: inhibition means the relative decrease from the control value, in per cent.

The record behind these values is patent EP3807270B1, “NOVEL HETEROARYL HETEROCYCLYL COMPOUNDS FOR THE TREATMENT OF AUTOIMMUNE DISEASE” (F. Hoffmann-La Roche AG, priority 2018, dated 2019).
